In article PMC7558399, “In Vitro Selective Growth-Inhibitory Activities of Phytochemicals, Synthetic Phytochemical Analogs, and Antibiotics against Diarrheagenic/Probiotic Bacteria and Cancer/Normal Intestinal Cells” (Pharmaceuticals, 2020):
≈ marks a conversion by molar mass, not a printed value. Read-outs that look alike come from different tables or passages of the source.

Tests used:
Type in all cases: cell-based
[1] = system: S. enterica ssp. enterica serovar Typhimurium (ATCC 14028); assay: Broth microdilution MIC, Salmonella Typhimurium; conditions: Salmonella Typhimurium, growth inhibited by ≥80%, read-out: MIC
[2] = system: probiotic bacteria (9 strains); assay: Broth microdilution MIC, probiotic bacteria as a group (mean or range over strains); conditions: mean of 9 strains; >512 replaced with 1024; read-out: x¯ -PB ± SD: mean MIC for probiotic bacteria
[3] = system: Lactobacillus casei (DSMZ 20011); assay: Broth microdilution MIC, L. casei; conditions: Lacticaseibacillus casei, DSMZ20011; Lactobacillus casei; growth inhibited by ≥80%; read-out: MIC
[4] = system: Bifidobacterium bifidum (ATCC 29521); assay: Broth microdilution MIC, B. bifidum; conditions: ATCC29521, growth inhibited by ≥80%, read-out: MIC
[5] = system: Enterococcus faecalis (ATCC 29212); assay: Broth microdilution MIC, E. faecalis; conditions: ATCC29212, growth inhibited by ≥80%, read-out: MIC
[6] = system: Bacillus cereus (ATCC 14579); assay: Broth microdilution MIC, B. cereus; conditions: median/mode, read-out: MIC
[7] = system: Vibrio parahaemolyticus (ATCC 17802); assay: Broth microdilution MIC, V. parahaemolyticus; conditions: ATCC17802, growth inhibited by ≥80%, read-out: MIC
[8] = system: Shigella flexneri (ATCC 12022); assay: microbe, parasite or virus in culture; conditions: ATCC12022
[9] = system: Bifidobacterium adolescentis (DSMZ 20087); assay: Broth microdilution MIC, B. adolescentis; conditions: DSMZ20087, growth inhibited by ≥80%, read-out: MIC
[10] = system: E. coli 0175:H7 (NCTC 12900); assay: microbe, parasite or virus in culture; conditions: Escherichia coli, NCTC12900
[11] = system: Lactobacillus rhamnosus (CCM 7091); assay: Broth microdilution MIC, L. rhamnosus; conditions: Lacticaseibacillus rhamnosus, CCM7091; Lactobacillus rhamnosus; growth inhibited by ≥80%; read-out: MIC
[12] = system: Lactobacillus reuteri (CCM 3625); assay: Broth microdilution MIC, L. reuteri; conditions: Limosilactobacillus reuteri, CCM3625; Lactobacillus reuteri; growth inhibited by ≥80%; read-out: MIC
[13] = system: Bifidobacterium longum ssp. longum (DSMZ 20219); assay: Broth microdilution MIC, B. longum ssp. longum; conditions: DSMZ20219; Bifidobacterium longum ssp. longum; growth inhibited by ≥80%; read-out: MIC
[14] = system: Bacteroides fragilis (ATCC 25285); assay: Broth microdilution MIC, B. fragilis; conditions: ATCC25285, growth inhibited by ≥80%, read-out: MIC
[15] = system: FHs 74 Int (ATCC CCL 241) intestinal normal cells; assay: MTT cytotoxicity assay, FHs 74 Int; conditions: 72 h, FHs 74 Int (intestinal normal cells), MTT; for IC50 / IC80: FHs74Int; for IC50: read-out: IC50 ± SD; for IC80: read-out: IC80 ± SD (80% inhibitory concentration of proliferation)
[16] = system: Salmonella enterica ssp. enterica serovar Enteritidis (ATCC 13076); assay: Broth microdilution MIC, Salmonella Enteritidis; conditions: Salmonella Enteritidis, growth inhibited by ≥80%, read-out: MIC
[17] = system: Bifidobacterium animalis spp. lactis (DSMZ 10140); assay: Broth microdilution MIC, B. animalis spp. lactis; conditions: DSMZ10140; Bifidobacterium animalis spp. lactis; growth inhibited by ≥80%; read-out: MIC
[18] = system: Listeria monocytogenes (ATCC 7644); assay: Broth microdilution MIC, L. monocytogenes; conditions: ATCC7644, growth inhibited by ≥80%, read-out: MIC
[19] = system: diarrheagenic bacteria (12 strains); assay: organism not typed
[20] = system: HT29 (ATCC HTB 38) intestinal cancer cells; assay: MTT cytotoxicity assay, HT29; conditions: Homo sapiens, HT-29, HT29, MTT, 72 h; for IC50: read-out: IC50 ± SD; for IC80: read-out: IC80 ± SD (80% inhibitory concentration of proliferation)
[21] = system: Escherichia coli (ATCC 25922); assay: Broth microdilution MIC, E. coli; conditions: ATCC25922, growth inhibited by ≥80%, read-out: MIC
[22] = system: Bifidobacterium breve (ATCC 15700); assay: Broth microdilution MIC, B. breve; conditions: ATCC15700, growth inhibited by ≥80%, read-out: MIC
[23] = system: Caco-2 (ATCC HTB 37) intestinal cancer cells; assay: MTT cytotoxicity assay, Caco-2; conditions: Homo sapiens, Caco-2, MTT, 72 h; for IC50: read-out: IC50 ± SD; for IC80: read-out: IC80 ± SD (80% inhibitory concentration of proliferation)
[24] = system: intestinal cancer cells (HT29 and Caco-2); assay: MTT cytotoxicity assay, mean for intestinal cancer cells; conditions: for IC50: mean of HT29 and Caco-2, >512 replaced with 1024, read-out: x¯ -CC ± SD: mean IC50 for intestinal cancer cells; for IC80: read-out: x¯ -CC ± SD: mean IC80 for intestinal cancer cells
[25] = system: Clostridium perfringens (DSMZ 11778); assay: microbe, parasite or virus in culture; conditions: DSMZ11778
[26] = system: Yersinia enterocolitica (ATCC 9610); assay: Broth microdilution MIC, Y. enterocolitica; conditions: ATCC9610, growth inhibited by ≥80%, read-out: MIC
[27] = system: Clostridium difficile (DSMZ 12056); assay: microbe, parasite or virus in culture; conditions: Clostridioides difficile, DSMZ12056; Clostridium difficile; […]; read-out: MIC
[28] = ATCC14579, growth inhibited by ≥80%
[29] = mean of 12 strains, >512 replaced with 1024, read-out: x¯ -DB ± SD: mean MIC for diarrheagenic bacteria

Row | SMILES | MIC [2] [µg/mL] | MIC [3] [µg/mL] | MIC [4] [µg/mL] | MIC [5] [µg/mL] | MIC [7] [µg/mL] | MIC [8] [µg/mL] | MIC [9] [µg/mL] | MIC [10] [µg/mL] | MIC [11] [µg/mL] | MIC [12] [µg/mL] | MIC [13] [µg/mL] | MIC [14] [µg/mL] | IC50 [15] [µg/mL] | IC80 [15] [µg/mL] | MIC [17] [µg/mL] | MIC [18] [µg/mL] | IC50 [20] [µg/mL] | IC80 [20] [µg/mL] | MIC [21] [µg/mL] | MIC [22] [µg/mL] | also measured
1 | O=C(O)c1cn(C2CC2)c2cc(N3CCNCC3)c(F)cc2c1=O [CP, ciprofloxacin] | 23.6 ± 18 (≈ 71.2 µM) | 32 (≈ 96.6 µM) | 16 (≈ 48.3 µM) | 2 (≈ 6.04 µM) | 0.062 (≈ 0.187 µM) | 0.016 (≈ 0.0483 µM) | 8 (≈ 24.1 µM) | 0.016 (≈ 0.0483 µM) | 4 (≈ 12.1 µM) | 32 (≈ 96.6 µM) | 16 (≈ 48.3 µM) | 8 (≈ 24.1 µM) | 51.8 ± 27 (≈ 156 µM) | 130 ± 24 (≈ 391 µM) | 32 (≈ 96.6 µM) | 4 (≈ 12.1 µM) | 130 ± 13 (≈ 393 µM) | > 512 | 0.062 (≈ 0.187 µM) | 64 (≈ 193 µM) | MIC [1]: 0.031 µg/mL (≈ 0.0936 µM); MIC [6, 28]: 1 µg/mL (≈ 3.02 µM); MIC [16]: 0.031 µg/mL (≈ 0.0936 µM); MIC ([19]; all gram-negative diarrheagenic bacteria, range over strains, read-out: MICs): 0.016 to 0.125 µg/mL (≈ 0.0483 to 0.377 µM); MIC ([19]; gram-positive pathogens, range over strains, read-out: MICs): 1 to 16 µg/mL (≈ 3.02 to 48.3 µM); MIC [19, 29]: 2 ± 4 µg/mL (≈ 6.04 µM)
2 | Cc1ncc([N+](=O)[O-])n1CCO [MA, metronidazole] | 385 ± 458 (≈ 2250 µM) | > 512 | > 512 | > 512 | > 512 | > 512 | 64 (≈ 374 µM) | > 512 | > 512 | 256 (≈ 1500 µM) | 8 (≈ 46.7 µM) | 0.5 (≈ 2.92 µM) | > 512 | > 512 | 32 (≈ 187 µM) | 512 (≈ 2990 µM) | > 512 | > 512 | 0.062 (≈ 0.362 µM) | 32 (≈ 187 µM) | IC50 [23]: > 512 µg/mL; IC80 [23]: > 512 µg/mL; MIC ([6]; ATCC14579, […]): 128 µg/mL (≈ 748 µM); IC50 [24]: > 512 µg/mL; IC80 [24]: > 512 µg/mL; MIC [25]: 8 µg/mL (≈ 46.7 µM); IC50 ± SD [15]: - (Not active (MIC/IC50/80 > 512 μg/mL, the value 1024 μg/mL was used for average calculation)); IC80 ± SD (80% inhibitory concentration of proliferation) [15]: - (Not active (MIC/IC50/80 > 512 μg/mL, the value 1024 μg/mL was used for average calculation)); MIC [26]: > 512 µg/mL; MIC [27]: 0.5 µg/mL (≈ 2.92 µM); MIC ([19]; both clostridial species tested, read-out: MICs): 0.5 to 8 µg/mL (≈ 2.92 to 46.7 µM); MIC [19, 29]: 651 ± 459 µg/mL (≈ 3810 µM)
3 | CN(C)[C@@H]1C(O)=C(C(N)=O)C(=O)[C@@]2(O)C(O)=C3C(=O)c4c(O)cccc4[C@@](C)(O)[C@H]3C[C@@H]12 [TC, tetracycline] | 19.8 ± 19 (≈ 44.6 µM) | 8 (≈ 18 µM) | 16 (≈ 36 µM) | 4 (≈ 9 µM) | 1 (≈ 2.25 µM) | 2 (≈ 4.5 µM) | 64 (≈ 144 µM) | 4 (≈ 9 µM) | 8 (≈ 18 µM) | 32 (≈ 72 µM) | 2 (≈ 4.5 µM) | 0.5 (≈ 1.13 µM) | 14.7 ± 2.3 (≈ 33.1 µM) | 108 ± 5 (≈ 243 µM) | 32 (≈ 72 µM) | 2 (≈ 4.5 µM) | 393 ± 20 (≈ 884 µM) | > 512 | 1 (≈ 2.25 µM) | 16 (≈ 36 µM) | MIC [1]: 4 µg/mL (≈ 9 µM); IC50 [23]: 70.4 ± 15 µg/mL (≈ 158 µM); IC80 [23]: > 512 µg/mL; MIC [6, 28]: 0.5 µg/mL (≈ 1.13 µM); IC50 [24]: 232 ± 161 µg/mL (≈ 521 µM); IC80 [24]: > 512 µg/mL; MIC [25]: 32 µg/mL (≈ 72 µM); MIC [26]: 2 µg/mL (≈ 4.5 µM); MIC [16]: 4 µg/mL (≈ 9 µM); MIC ([19]; read-out: MICs): 1 to 4 µg/mL (≈ 2.25 to 9 µM); MIC ([19]; read-out: x¯ -DB ± SD: mean MIC for diarrheagenic bacteria): 4.8 ± 8 µg/mL (≈ 10.8 µM)
